In PubChem BioAssay (NCI):
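48-hour exposure; five concentrations; linearly interpolated endpoints. The concentration for 50% growth inhibition is given as GI50. TGI: concentration producing complete growth inhibition.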

Columns and labels:
Experiment in all cases: growth of human tumour cells (NCI), 48 h
HCT-116 colon = test system: HCT-116 colon
HOP-92 NSCLC = test system: HOP-92 NSCLC
MOLT-4 leukemia = test system: MOLT-4 leukemia
NCI-H226 lung = test system: NCI-H226 lung
NCI-H23 lung = test system: NCI-H23 lung
NCI-H522 lung = test system: NCI-H522 lung
OVCAR-4 ovarian = test system: OVCAR-4 ovarian
RXF 393 renal = test system: RXF 393 renal
SK-MEL-2 melanoma = test system: SK-MEL-2 melanoma
SK-MEL-28 melanoma = test system: SK-MEL-28 melanoma

SMILES | GI50 (HCT-116 colon) [µM] | TGI (HCT-116 colon) [µM] | GI50 (HOP-92 NSCLC) [µM] | TGI (HOP-92 NSCLC) [µM] | GI50 (MOLT-4 leukemia) [µM] | TGI (MOLT-4 leukemia) [µM] | GI50 (NCI-H226 lung) [µM] | TGI (NCI-H226 lung) [µM] | GI50 (NCI-H23 lung) [µM] | TGI (NCI-H23 lung) [µM] | GI50 (NCI-H522 lung) [µM] | TGI (NCI-H522 lung) [µM] | GI50 (OVCAR-4 ovarian) [µM] | TGI (OVCAR-4 ovarian) [µM] | GI50 (RXF 393 renal) [µM] | TGI (RXF 393 renal) [µM] | GI50 (SK-MEL-2 melanoma) [µM] | TGI (SK-MEL-2 melanoma) [µM] | GI50 (SK-MEL-28 melanoma) [µM] | TGI (SK-MEL-28 melanoma) [µM]
COc1ccc2oc(=O)cc(C(c3ccc[nH]3)c3ccc[nH]3)c2c1 | 0.328 | 10.6 | 0.0985 | 2.83 | 0.111 | 12 | 0.146 | 24.4 | 0.11 | 14 | 0.348 | 5.88 | 0.303 | 26.3 | 0.0902 | 0.44 | 0.616 | 13.2 | 0.874 | 14
CN(Cc1cnc2nc(N)nc(N)c2n1)c1ccc(C(=O)NC(CCC(=O)O)C(=O)O)cc1C(F)(F)F (stereo not given) |  | > 100 |  | > 100 |  | > 100 |  | > 89 |  | > 100 |  | > 100 |  | > 100 |  | > 100 |  | > 100 |  | > 100
CC12CCC3C(CCC4Cc5[nH]c6ccccc6c5CC43C)C1CCC2O (stereo not given) | 0.501 |  | > 100 | > 100 | 2.55 | > 100 | 6.08 | > 100 | 1.81 | > 24.8 | 0.295 | 5.73 | 1.35 | > 100 | 0.738 | 3.31 | 4.28 | > 100 | 0.813 | > 100
Nc1c(C(=O)c2cccc(CCCN3CCOCC3)c2)cnn1-c1ccc(F)cc1 | > 25 | > 25 | 7.01 | > 25 | > 25 | > 25 | > 25 | > 25 | > 25 | > 25 | > 25 | > 25 | > 25 | > 25 | > 25 | > 25 | > 25 | > 25 | > 25 | > 25
O=C(NC1CCN(Cc2ccccc2)CC1)c1cc(-c2ccncc2)nc2ccc(Cl)cc12 | 9.64 | 33.9 | 2.49 | 47.4 | 4.26 | > 46.3 | 30.2 | > 100 | 43.5 | > 100 | 22.2 | 60.6 | 10.7 | 59.6 | 5.48 | 49.2 | 29.8 | 87.1 | 10.5 | > 50.7
CCc1nc(N)nc(N)c1-c1ccc(NCCN)c([N+](=O)[O-])c1 |  | > 100 |  | > 100 |  | > 82.8 |  | > 100 |  | > 100 |  | > 51.1 |  | > 100 |  | > 100 |  | > 100 |  | > 100
Cn1cc(-c2ccc3c(Nc4cccc(NC(=O)Nc5cccc(F)c5)c4)ncnc3c2)cn1 | 2.04 | 7.9 | 2.23 | 9.08 | 1.95 | 14.6 | 12.1 | 35.9 | 2.99 | 13.4 | 1.22 | 15.9 | 1.85 | 4.41 | 1.2 | 3.83 | 4.43 | 17.8 | 1.55 | 3.08
COC(=O)CCC(=O)C(=O)OC | 30600 |  | 19300 | 82200 | 34800 |  | 17300 | 65100 | 27400 | 95700 | 13400 | 30500 | 65000 |  | 30300 | 95100 | 19700 | 41400 | 17600 | 60400
COc1cccc(C2c3cc4c(cc3OC(C)(N3CCCC3)C2C)OCO4)c1OC (stereo not given) |  | 17.7 |  | 71.2 |  | 27.4 |  | 58.5 |  | 44.6 |  | 52.3 |  | 46.1 |  | 86.7 |  | 27 |  | > 100
CCCCON(OC(=O)c1ccccc1)C(=O)c1ccccc1 | > 100 | > 100 | > 100 | > 100 | 53.1 | > 100 | > 100 | > 100 | > 100 | > 100 | > 100 | > 100 | > 100 | > 100 | > 100 | > 100 | > 100 | > 100 | > 100 | > 100
CC(=O)NCCc1c2c(c3nccc4c3c1Nc1ccccc1-4)OCS2 | 2.22 |  | 2.02 | 21 | 2.38 | > 100 | 11.6 | 26.5 | 1.52 | 12.3 | 0.936 | 3.11 | 1.92 | 6.02 | 3.02 | 13.5 | 3 | 13.9 | 3.45 | 15.7
N#Cc1c(-c2ccccc2)nc(SCC2CO2)nc1N1CCOCC1 (stereo not given) | 20.5 | > 100 | 0.284 | 1.22 | 10.1 | > 74.6 | 11.5 | > 100 | 8.51 | > 100 | 27.5 | > 100 | 52.7 | > 100 | 13 | > 100 | 14.7 | 75.7 | 5.11 | 76.5
COc1cc2c(cc1O)CC[C@@H]1[C@@H]2CC[C@]2(C)[C@@H](NCCN(C)C)CC[C@@H]12 | 0.139 | 0.522 | 0.124 | 0.742 | 0.187 | 0.695 | 0.698 | 1.59 | 0.161 | 0.636 | 0.108 | 0.5 | 0.339 | 0.943 | 0.118 | 0.48 | 0.127 | 0.517 | 0.0883 | 0.262
CC1(C)N=C(N)N=C(N)N1c1cccc(CCCCc2cccc(S(=O)(=O)F)c2)c1 | 0.445 | > 100 | 5.48 | 94 | 3.22 | 80.7 | 8.93 | > 100 | 2.39 | > 100 | 2.55 | 43.9 | 8.06 | > 100 | 2.13 | > 100 | 2.73 | > 58.5 | 4.1 | 21.7
